Measurements from US6441195B1, “Substituted sulphonylamino(thio) carbonyl compounds” (Bayer Aktiengesellschaft, priority 1995, dated 2002).

Assays:
Assay type in all cases: in vivo
[1] = test system: weeds; experiment: Pre-emergence test (greenhouse), activity against weeds; conditions: in words
In short: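 Compound formulated in acetone with alkylaryl polyglycol ether emulsifier, diluted in water, and watered onto soil about 24 h after sowing, dosed by application rate per unit area. Damage rated after three weeks as % versus untreated control (0% = no action).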

[2] = test system: Maize; experiment: Pre-emergence test/Greenhouse, Maize; conditions: in vivo
In short: (§1)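 Compound formulated with solvent and emulsifier, diluted in water, and watered onto soil about 24 h after sowing; application rate per unit area is what counts. Damage rated after three weeks as % versus untreated control (0% = no action).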

[3] = test system: Soya beans; experiment: Pre-emergence test/Greenhouse, Soya beans; conditions: in vivo
In short: as §1

[4] = test system: Lolium; experiment: Pre-emergence test/Greenhouse, Lolium; conditions: after three weeks
In short: as §1

[5] = test system: Poa; experiment: Pre-emergence test/Greenhouse, Poa; conditions: after three weeks
In short: as §1

[6] = test system: Sorghum; experiment: Pre-emergence test/Greenhouse, Sorghum; conditions: after three weeks
In short: as §1

[7] = test system: Ambrosia; experiment: Pre-emergence test/Greenhouse, Ambrosia; conditions: after three weeks
In short: as §1

[8] = test system: Matricaria; experiment: Pre-emergence test/Greenhouse, Matricaria; conditions: after three weeks
In short: as §1

[9] = test system: Solanum; experiment: Pre-emergence test/Greenhouse, Solanum; conditions: after three weeks
In short: as §1

Structure (SMILES)	activity against weeds [1]	degree of damage to the plants (% damage vs untreated control), Maize [2]	degree of damage to the plants (% damage vs untreated control), Soya beans [3]	degree of damage to the plants (% damage vs untreated control), Lolium ([4]; 60 g of ai./ha)	degree of damage to the plants (% damage vs untreated control), Poa ([5]; 60 g of ai./ha)	degree of damage to the plants (% damage vs untreated control), Sorghum ([6]; 60 g of ai./ha)	degree of damage to the plants (% damage vs untreated control), Ambrosia ([7]; 60 g of ai./ha)	degree of damage to the plants (% damage vs untreated control), Solanum ([9]; 60 g of ai./ha)	degree of damage to the plants (% damage vs untreated control), Matricaria ([8]; 60 g of ai./ha)	degree of damage to the plants (% damage vs untreated control), Lolium ([4]; 125 g of ai./ha)	degree of damage to the plants (% damage vs untreated control), Poa ([5]; 125 g of ai./ha)	degree of damage to the plants (% damage vs untreated control), Sorghum ([6]; 125 g of ai./ha)	degree of damage to the plants (% damage vs untreated control), Ambrosia ([7]; 125 g of ai./ha)	degree of damage to the plants (% damage vs untreated control), Matricaria ([8]; 125 g of ai./ha)	degree of damage to the plants (% damage vs untreated control), Solanum ([9]; 125 g of ai./ha)	further results
CCOC(=O)c1cccc(Cl)c1S(=O)(=O)NC(=O)n1nc(SC)n(C)c1=O [Example 131]	very strong activity against weeds	0%	0%	–	–	–	–	–	–	–	–	–	–	–	–	degree of damage to the plants (% damage vs untreated control), Lolium ([4]; 250 g of ai./ha): 95%; degree of damage to the plants (% damage vs untreated control), Poa ([5]; 250 g of ai./ha): 90%; degree of damage to the plants (% damage vs untreated control), Sorghum ([6]; 250 g of ai./ha): 90%; degree of damage to the plants (% damage vs untreated control), Ambrosia ([7]; 250 g of ai./ha): 95%; degree of damage to the plants (% damage vs untreated control), Matricaria ([8]; 250 g of ai./ha): 80%; degree of damage to the plants (% damage vs untreated control), Solanum ([9]; 250 g of ai./ha): 95%
COC(=O)c1cccc(C)c1S(=O)(=O)NC(=O)n1nc(OCC(F)(F)F)n(C)c1=O [Example 143]	very strong activity against weeds	20%	0%	90%	90%	90%	80%	90%	–	–	–	–	–	–	–	–
CCSc1nn(C(=O)NS(=O)(=O)c2c(C)csc2C(=O)OC)c(=O)n1C [Example 34]	very strong activity against weeds	10%	0%	60%	70%	80%	90%	90%	95%	–	–	–	–	–	–	–
CCOC(=O)c1cccc(C)c1S(=O)(=O)NC(=O)c1noc(C)n1 [Example 10]	very strong activity against weeds	0%	20%	–	–	–	–	–	–	–	–	–	–	–	–	degree of damage to the plants (% damage vs untreated control), Lolium ([4]; 250 g of ai./ha): 80%; degree of damage to the plants (% damage vs untreated control), Poa ([5]; 250 g of ai./ha): 90%; degree of damage to the plants (% damage vs untreated control), Sorghum ([6]; 250 g of ai./ha): 70%; degree of damage to the plants (% damage vs untreated control), Ambrosia ([7]; 250 g of ai./ha): 95%; degree of damage to the plants (% damage vs untreated control), Matricaria ([8]; 250 g of ai./ha): 95%; degree of damage to the plants (% damage vs untreated control), Solanum ([9]; 250 g of ai./ha): 95%
C#CCSc1nn(C(=O)NS(=O)(=O)c2c(C)csc2C(=O)OC)c(=O)n1C [Example 51]	very strong activity against weeds	0%	30%	–	–	–	–	–	–	80%	80%	80%	95%	95%	95%	–
CCCc1nn(C(=O)[N-]S(=O)(=O)c2c(C)cccc2C(=O)OC)c(=O)n1C.[Na+] [Example 154]	very strong activity against weeds	0%	0%	95%	95%	95%	70%	90%	70%	–	–	–	–	–	–	–
CCCOC(=O)c1cccc(C)c1S(=O)(=O)NC(=O)n1nc(OCCC)n(C)c1=O [Example 22]	very strong activity against weeds	20%	10%	–	–	–	–	–	–	95%	95%	80%	95%	95%	95%	–
CCSc1nn(C(=O)NS(=O)(=O)c2c(C)cccc2C(=O)OC)c(=O)n1OC [Example 157]	very strong activity against weeds	0%	20%	90%	80%	80%	95%	90%	100%	–	–	–	–	–	–	–
CCCOC(=O)c1cccc(C)c1S(=O)(=O)NC(=O)n1nc(OC)n(C)c1=O [Example 20]	very strong activity against weeds	10%	0%	–	–	–	–	–	–	95%	95%	90%	95%	95%	95%	–
C=CCOc1nn(C(=O)NS(=O)(=O)c2c(C)cccc2C(=O)OC)c(=O)n1C [Example 148]	very strong activity against weeds	40%	0%	80%	95%	90%	80%	95%	80%	–	–	–	–	–	–	–
CCOC(=O)c1scc(C)c1S(=O)(=O)NC(=O)n1nc(C(C)C)n(C)c1=O [Example 68]	very strong activity against weeds	5%	10%	–	–	–	–	–	–	80%	90%	60%	95%	100%	95%	–
CCCOC(=O)c1cccc(C)c1S(=O)(=O)NC(=O)n1nc(OC(C)C)n(C)c1=O [Example 23]	very strong activity against weeds	0%	0%	–	–	–	–	–	–	–	80%	60%	90%	95%	90%	–
CCCOc1nn(C(=O)NS(=O)(=O)c2c(C)cccc2C(=O)OC(C)C)c(=O)n1C [Example 17]	very strong activity against weeds	–	0%	–	–	–	–	–	–	–	–	–	–	–	–	degree of damage to the plants (% damage vs untreated control), Lolium ([4]; 30 g of ai./ha): 80%; degree of damage to the plants (% damage vs untreated control), Poa ([5]; 30 g of ai./ha): 95%; degree of damage to the plants (% damage vs untreated control), Sorghum ([6]; 30 g of ai./ha): 60%; degree of damage to the plants (% damage vs untreated control), Ambrosia ([7]; 30 g of ai./ha): 95%; degree of damage to the plants (% damage vs untreated control), Matricaria ([8]; 30 g of ai./ha): 95%; degree of damage to the plants (% damage vs untreated control), Solanum ([9]; 30 g of ai./ha): 95%
